Experimental data taken from patent US8026243B2, “[4,5′]Bipyrimidinyl-6,4′-diamine derivatives as protein kinase inhibitors” (Novartis AG, priority 2006, dated 2011).

These molecules were tested against T1, Ba/F3-TEL-FGFR3 cells (Homo sapiens, UniProt P22607) (assay: FGFR3 cellular assay: proliferation of transformed Ba/F3-TEL-FGFR3 cells (AlamarBlue)). Details: 48 hours incubation, class symbols.
T1 construct: fused on or other part: The N-terminal oligomerising part of TEL (ETV6) is fused before the intracellular kinase part of FGFR3; P41212 (Transcription factor ETV6)
T1 sequence (P22607 whole entry, change not shown, the tested form may be a part): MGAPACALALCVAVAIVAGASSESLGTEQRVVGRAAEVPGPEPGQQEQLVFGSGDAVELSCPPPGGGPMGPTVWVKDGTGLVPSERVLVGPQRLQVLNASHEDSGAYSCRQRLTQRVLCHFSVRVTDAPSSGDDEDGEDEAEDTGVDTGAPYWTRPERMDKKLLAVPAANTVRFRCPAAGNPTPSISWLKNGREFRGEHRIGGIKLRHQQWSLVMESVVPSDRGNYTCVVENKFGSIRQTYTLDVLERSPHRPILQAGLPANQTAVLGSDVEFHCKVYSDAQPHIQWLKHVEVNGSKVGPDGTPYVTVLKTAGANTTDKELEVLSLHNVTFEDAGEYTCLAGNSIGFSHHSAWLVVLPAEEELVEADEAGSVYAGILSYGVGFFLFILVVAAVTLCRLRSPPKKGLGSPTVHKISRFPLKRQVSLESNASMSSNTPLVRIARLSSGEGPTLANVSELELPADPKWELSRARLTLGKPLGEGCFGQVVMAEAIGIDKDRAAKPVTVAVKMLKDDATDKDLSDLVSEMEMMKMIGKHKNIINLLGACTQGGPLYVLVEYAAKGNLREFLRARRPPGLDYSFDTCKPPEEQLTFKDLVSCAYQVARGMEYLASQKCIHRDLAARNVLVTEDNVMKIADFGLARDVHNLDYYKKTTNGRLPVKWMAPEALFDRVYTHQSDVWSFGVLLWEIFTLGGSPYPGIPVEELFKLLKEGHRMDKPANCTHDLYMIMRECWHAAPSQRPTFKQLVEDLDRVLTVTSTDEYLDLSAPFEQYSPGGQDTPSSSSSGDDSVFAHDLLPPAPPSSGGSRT
Format: cell-based
Experimental: Compounds of the invention are tested for their ability to inhibit transformed Ba/F3-TEL-FGFR3 cells proliferation, which is dependent on FGFR3 cellular kinase activity. Ba/F3-TEL-FGFR3 are cultured up to 800,000 cells/mL in suspension, with RPMI 1640 supplemented with 10% fetal bovine serum as the culture medium. Cells are dispensed into 384-well format plate at 5000 cell/well in […], culture medium. Compounds of the invention are dissolved and diluted in dimethylsulfoxide (DMSO). Twelve points 1:3 serial dilutions are made into DMSO to create concentrations gradient ranging typically from 10 mM to 0.05 μM. Cells are added with 50 nL of diluted compounds and incubated for 48 hours in cell culture incubator. AlamarBlue® (TREK Diagnostic Systems), which can be used to monitor the reducing environment created by proliferating cells, are added to cells at final concentration of 10%. After additional four hours of incubation in a 37° C. cell culture incubator, fluorescence signals from reduced AlamarBlue® (Excitation at 530 nm, Emission at 580 nm) are quantified on Analyst GT (Molecular Devices Corp.). IC50 values are calculated by linear regression analysis of the percentage inhibition of each compound at 12 concentrations.

GI50 [nM]	Compound
< 100	CCNC(=O)c1cc(OC)c(Cl)c(Nc2ncncc2-c2cc(Nc3cc(CN4CCN(C)CC4)ccn3)ncn2)c1Cl [Compound 30, 2,4-Dichloro-N-ethyl-5-methoxy-3-{6-[4-(4-methyl-piperazin-1-ylmethyl)-pyridin-2-ylamino]-[4,5′]bipyrimidinyl-4′-ylamino}-benzamide]
< 100	CCNC(=O)c1cc(OC)c(Cl)c(Nc2ncncc2-c2cc(Nc3ccc(CN(C)C)cn3)ncn2)c1Cl [Compound 31, 2,4-Dichloro-3-[6-(5-dimethylaminomethyl-pyridin-2-ylamino)-[4,5′]bipyrimidinyl-4′-ylamino]-N-ethyl-5-methoxy-benzamide]
100 to 250	CCNC(=O)c1cc(OC)c(Cl)c(Nc2ncncc2-c2cc(Nc3ccc(CCN4CCOCC4)cn3)ncn2)c1Cl [Compound 32, 2,4-Dichloro-N-ethyl-5-methoxy-3-{6-[5-(2-morpholin-4-yl-ethyl)-pyridin-2-ylamino]-[4,5′]bipyrimidinyl-4′-yl-amino}-benzamide]
< 100	CCNC(=O)c1cc(OC)c(Cl)c(Nc2ncncc2-c2cc(Nc3cc(CN4CCOCC4)ccn3)ncn2)c1Cl [Compound 33, 2,4-Dichloro-N-ethyl-5-methoxy-3-[6-(4-morpholin-4-ylmethyl-pyridin-2-ylamino)-[4,5′]bipyrimidinyl-4′-ylamino]-benzamide]
250 to 500	CCNC(=O)c1cc(OC)c(Cl)c(Nc2ncncc2-c2cc(Nc3ccc(CN4CCN(C)CC4)cn3)ncn2)c1Cl [Compound 34, 2,4-Dichloro-N-ethyl-5-methoxy-3-{6-[5-(4-methyl-piperazin-1-ylmethyl)-pyridin-2-ylamino]-[4,5′]bipyrimidinyl-4′-ylamino}-benzamide]
< 100	CCNC(=O)c1cc(OC)c(Cl)c(Nc2ncncc2-c2cc(Nc3ccc(CN4CCCC4)cn3)ncn2)c1Cl [Compound 35, 2,4-Dichloro-N-ethyl-5-methoxy-3-[6-(5-pyrrolidin-1-ylmethyl-pyridin-2-ylamino)-[4,5′]bipyrimidinyl-4′-ylamino]-benzamide]
< 100	CCNC(=O)c1cc(OC)c(Cl)c(Nc2ncncc2-c2cc(Nc3ccc(N4CCN(CC)CC4)cc3)ncn2)c1Cl [Compound 36, 2,4-Dichloro-N-ethyl-3-{6-[4-(4-ethyl-piperazin-1-yl)-phenylamino]-[4,5′]bipyrimidinyl-4′-ylamino}-5-methoxy-benzamide]
100 to 250	COc1cc(Nc2ncncc2-c2cc(Nc3ccc(CN4CCOCC4)cn3)ncn2)c(Cl)c(OC)c1 [Compound 37, N4′-(2-Chloro-3,5-dimethoxy-phenyl)-N6-(5-morpholin-4-ylmethyl-pyridin-2-yl)-[4,5′]bipyrimidinyl-6,4′-diamine]
100 to 250	CCN1CCN(Cc2ccc(Nc3cc(-c4cncnc4Nc4cc(OC)cc(OC)c4Cl)ncn3)nc2)CC1 [Compound 38, N4′-(2-Chloro-3,5-dimethoxy-phenyl)-N6-[5-(4-ethyl-piperazin-1-ylmethyl)-pyridin-2-yl]-[4,5′]bipyrimidinyl-6,4′-diamine]
100 to 250	COc1cc(Nc2ncncc2-c2cc(Nc3cc(CN4CCN(C)CC4)ccn3)ncn2)c(Cl)c(OC)c1 [Compound 39, N4′-(2-Chloro-3,5-dimethoxy-phenyl)-N6-[4-(4-methyl-piperazin-1-ylmethyl)-pyridin-2-yl]-[4,5′]bipyrimidinyl-6,4′-diamine]
< 100	CCN1CCN(c2ccc(Nc3cc(-c4cncnc4Nc4c(Cl)c(OC)cc(OC)c4Cl)ncn3)nc2)CC1 [Compound 40, N4′-(2,6-Dichloro-3,5-dimethoxy-phenyl)-N6-[5-(4-ethyl-piperazin-1-yl)-pyridin-2-yl]-[4,5′]bipyrimidinyl-6,4′-diamine]
< 100	CCN1CCN(c2ccc(Nc3cc(-c4cncnc4Nc4c(Cl)c(OC)cc(C(=O)OC)c4Cl)ncn3)nc2)CC1 [Compound 41, 2,4-Dichloro-3-{6-[5-(4-ethyl-piperazin-1-yl)-pyridin-2-ylamino]-[4,5′]bipyrimidinyl-4′-ylamino}-5-methoxy-benzoic acid methyl ester]
< 100	CCNC(=O)c1cc(OC)c(Cl)c(Nc2ncncc2-c2cc(Nc3ccc(N4CCN(CC)CC4)cn3)ncn2)c1Cl [Compound 42, 2,4-Dichloro-N-ethyl-3-{6-[5-(4-ethyl-piperazin-1-yl)-pyridin-2-ylamino]-[4,5′]bipyrimidinyl-4′-ylamino}-5-methoxy-benzamide]
< 100	CCN1CCN(c2ccc(Nc3cc(-c4cncnc4Nc4c(F)c(OC)cc(OC)c4Cl)ncn3)nc2)CC1 [Compound 43, N4′-(2-Chloro-6-fluoro-3,5-dimethoxy-phenyl)-N6-[5-(4-ethyl-piperazin-1-yl)-pyridin-2-yl]-[4,5′]bipyrimidinyl-6,4′-diamine]
< 100	COc1cc(OC)c(Cl)c(Nc2ncncc2-c2cc(Nc3ccc(CN4CCOCC4)cn3)ncn2)c1F [Compound 44, N4′-(2-Chloro-6-fluoro-3,5-dimethoxy-phenyl)-N6-(5-morpholin-4-ylmethyl-pyridin-2-yl)-[4,5′]bipyrimidinyl-6,4′-diamine]
< 100	CCN1CCN(Cc2ccc(Nc3cc(-c4cncnc4Nc4c(F)c(OC)cc(OC)c4Cl)ncn3)nc2)CC1 [Compound 45, N4′-(2-Chloro-6-fluoro-3,5-dimethoxy-phenyl)-N6-[5-(4-ethyl-piperazin-1-ylmethyl)-pyridin-2-yl]-[4,5′]bipyrimidinyl-6,4′-diamine]
< 100	COc1cc(OC)c(Cl)c(Nc2ncncc2-c2cc(Nc3cc(CN4CCOCC4)ccn3)ncn2)c1F [Compound 46, N4′-(2-Chloro-6-fluoro-3,5-dimethoxy-phenyl)-N6-(4-morpholin-4-ylmethyl-pyridin-2-yl)-[4,5′]bipyrimidinyl-6,4′-diamine]
< 100	CCN1CCN(c2ccc(Nc3cc(-c4cncnc4Nc4c(Cl)c(OC)cc(OC)c4Br)ncn3)nc2)CC1 [Compound 47, N4′-(2-Bromo-6-chloro-3,5-dimethoxy-phenyl)-N6-[5-(4-ethyl-piperazin-1-yl)-pyridin-2-yl]-[4,5′]bipyrimidinyl-6,4′-diamine]
< 100	CCN1CCN(c2ccc(Nc3cc(-c4cncnc4Nc4c(C)c(OC)cc(OC)c4Cl)ncn3)nc2)CC1 [Compound 48, N4′-(2-Chloro-3,5-di-methoxy-6-methyl-phenyl)-N6-[5-(4-ethyl-piperazin-1-yl)-pyridin-2-yl]-[4,5′]bipyrimidinyl-6,4′-diamine]
< 100	COc1cc(OC)c(Br)c(Nc2ncncc2-c2cc(Nc3ccc(CN4CCOCC4)cn3)ncn2)c1Cl [Compound 49, N4′-(2-Bromo-6-chloro-3,5-dimethoxy-phenyl)-N6-(5-morpholin-4-ylmethyl-pyridin-2-yl)-[4,5′]bipyrimidinyl-6,4′-diamine]
< 100	CCN1CCN(Cc2ccc(Nc3cc(-c4cncnc4Nc4c(Cl)c(OC)cc(OC)c4Br)ncn3)nc2)CC1 [Compound 50, N4′-(2-Bromo-6-chloro-3,5-dimethoxy-phenyl)-N6-[5-(4-ethyl-piperazin-1-ylmethyl)-pyridin-2-yl]-[4,5′]bipyrimidinyl-6,4′-diamine]
< 100	COc1cc(OC)c(Br)c(Nc2ncncc2-c2cc(Nc3cc(CN4CCOCC4)ccn3)ncn2)c1Cl [Compound 51, N4′-(2-Bromo-6-chloro-3,5-dimethoxy-phenyl)-N6-(4-morpholin-4-ylmethyl-pyridin-2-yl)-[4,5′]bipyrimidinyl-6,4′-diamine]
